Tests used:
[1] = test system: tobacco (Nicotiana tabacum cv. Xenthi) leaf explants; assay: Effect on growth of tobacco leaf explants (fresh weight increase); type: cell-based; details: average after 3 weeks in culture
Experimental: The fresh weight increase was determined after 3 weeks in culture.

[2] = test system: leaf discs from ADA transformed plants 18-2, 18-3; assay: Culture of leaf discs from ADA transformed plants on selective media; type: cell-based, Nicotiana tabacum
Experimental: (§1) Leaf discs cut from Nicotiana tabacum cv. Xanthi were soaked in a dilution of an overnight culture of Agrobacterium/pDY18 for several seconds, blotted dry and placed on Murashige and Skoog medium containing Gamborg's (MS/B5 medium containing 30 g/l sucrose, 2 mg/l2,4-dichlorophenoxy acetic acid and […] phytoagar). After 2 days of co-cultivation the leaf discs were placed on medium containing ara-A (100 μM) or cordycepin (50 μM) as selective agents and 500 μg/ml carbenicillin to inhibit Agrobacterium growth. The shoots which were regenerated were transferred to rooting medium containing MS basal medium containing Gamborg's vitamins (MS/B5, Sigma), 30 g/l sucrose, 0.1 mg/l a-naphthalene acetic acid (NAA), 500 μg/ml carbenicillin and 100 μg/ml kanamycin and 6 g/l phytoagar, adjusted to pH 5.6. Regenerated plants were transferred to soil and grown at 25° C. in an 18/6 hrs day/night cycle. Two plants designated 18-2 and 18-3 were chosen for further study.
(§2) Leaf discs cut from plant 18-2, 18-3, and Normal (non-transformed) plants were cultured on agar MS agar media containing either no selective agent or ara-A (100 μM) or cordycepin (50 μM).

[3] = test system: plant cells, such as soybean (SB-1), tobacco and Brassica sp.; assay: Inhibition of plant cell growth by deoxyadenosine and analogs in culture medium; type: cell-based
[4] = test system: leaf discs from Normal (non-transformed) plants; assay: Culture of leaf discs from non-transformed plants on selective media; type: cell-based, Nicotiana tabacum
Experimental: as §1, §2

[5] = test system: soybean cells (Glycine max) line SB-1; assay: Effect on growth of soybean cells in culture (dry weight increase); type: cell-based; details: for Increase In Dry Weight: average after 6 days in culture
Experimental: Aliquots of cells were subcultured to medium containing either 0, 0.74 μM, 7.4 μM, 74 μM of 2'-deoxyadenosine and cultured for 6 days. The cells were then harvested on filters, oven dried and weighed.

Compound | Increase in Fresh Weight ([1]; 40 μM) | Increase in Fresh Weight ([1]; 80 μM) | Increase in Fresh Weight ([1]; 160 μM) | growth of plant cells in presence of compound in culture medium [3] | also measured
Nc1ncnc2c1ncn2[C@@H]1O[C@H](CO)[C@@H](O)[C@@H]1O [Arabinofuranosyl, 9-B-D-arabinofuranosyl adenine] | 0.10 ± 0.048 g | 0.05 ± 0.008 g | 0.02 ± 0.001 g | inhibited | Increase in Fresh Weight ([1]; 5 μM): 0.56 ± 0.047 g; Increase in Fresh Weight ([1]; 10 μM): 0.32 ± 0.037 g; Increase in Fresh Weight ([1]; 20 μM): 0.23 ± 0.025 g; growth of tissues on selective medium ([2]; transformed plant 18-2, ara-A 100 μM): proliferated; growth of tissues on selective medium ([2]; transformed plant 18-3, ara-A (100 μM)): proliferated; growth of tissues on selective medium ([4]; ara-A 100 μM): No growth was observed
Nc1nc(N)c2ncn([C@@H]3O[C@H](CO)[C@@H](O)[C@H]3O)c2n1 [2,6-diaminopurine riboside] |  |  |  | inhibited | 
COc1ncnc2c1ncn2[C@@H]1O[C@H](CO)[C@@H](O)[C@H]1O [6-methoxypurine riboside] |  |  |  | inhibited | 
Nc1ncnc2c1ncn2[C@@H]1O[C@H](CO)[C@@H](O)[C@H]1O [Adenosine] | 0.95 ± 0.069 g | 0.81 ± 0.060 g | 0.94 ± 0.056 g |  | Increase in Fresh Weight ([1]; 320 μM): 0.57 ± 0.052 g
Nc1ncnc2c1ncn2[C@H]1C[C@H](O)[C@@H](CO)O1 [2'-deoxyadenosine] | 0.74 ± 0.058 g | 0.96 ± 0.050 g | 0.32 ± 0.038 g | inhibited | Increase in Fresh Weight ([1]; 320 μM): 0.07 ± 0.005 g; Increase in Fresh Weight ([1]; 640 μM): 0.04 ± 0.003 g; Increase In Dry Weight ([5]; 0.74 μM): 6.05 mg; Increase In Dry Weight ([5]; 7.40 μM): 3.51 mg; Increase In Dry Weight ([5]; 74.00 μM): 1.93 mg; effect on growth of soybean cells ([5]; all three concentrations (0.74, 7.4, 74 μM), 6 days): inhibitory
Nc1ncnc2c1ncn2[C@@H]1O[C@H](CO)C[C@H]1O [Cordycepin, 3'-deoxyadenosine] | 0.04 + 0.049 g | 0.02 ± 0.001 g | 0.02 ± 0.001 g | inhibited | Increase in Fresh Weight ([1]; 5 μM): 0.61 ± 0.059 g; Increase in Fresh Weight ([1]; 10 μM): 0.10 ± 0.016 g; Increase in Fresh Weight ([1]; 20 μM): 0.06 ± 0.008 g; growth of tissues on selective medium ([2]; transformed plant 18-2, cordycepin 50 μM): proliferated; growth of tissues on selective medium ([2]; transformed plant 18-3, cordycepin (50 μM)): proliferated; growth of tissues on selective medium ([4]; cordycepin 50 μM): No growth was observed
Nc1ncnc2c1ncn2[C@H]1CC[C@@H](CO)O1 [2'-3'-dideoxyadenosine] |  |  |  | inhibited | 
Nc1ncnc2c1ncn2[C@@H]1O[C@H](CO)[C@H](O)[C@H]1O [xyl-A, 9-B-D-xylofuranosyl adenine] |  |  |  | inhibited | 
OC[C@H]1O[C@@H](n2cnc3c(Cl)ncnc32)[C@H](O)[C@@H]1O [6-chloropurine riboside] |  |  |  | inhibited | 
Nc1nc(Cl)nc2c1ncn2[C@@H]1O[C@H](CO)[C@@H](O)[C@H]1O [2-chloroadenosine] |  |  |  | inhibited | 
